# Measured values published in article PMC3682882 (BMC Pharmacology & Toxicology, 2013).
# Key:
# subjects with T2DM [1] = assay: Percent of filtered glucose excreted in the urine; format: in vivo, human; conditions: for percent filtered glucose excreted in urine, max / percent filtered glucose excreted in urine, mean (SD) / percent filtered glucose excreted in urine, median / percent filtered glucose excreted in urine, min: Day 2, N = 13; for percent of filtered glucose excreted in the urine, mean: combined 24 hour collection, Day 2
# Protocol: Creatinine clearance (CLcr) was calculated on Day 2 and used to determine the percent of filtered glucose load excreted in urine. By using the urine collections on Day 2, CLcr was calculated as follows:
# Clcr=totalamountofurinecreatinine0-xxhinterval/nearestassociatedserumcreatinine=urinecreatininemg/xxhours/serumcreatininemg/dL*100mL/dL/xx*60minutes/xxhours,
# where urine creatinine (mg/xx hours) is the amount of […] excreted in a xx-hour period. Urine creatinine was calculated by multiplying the urine creatinine concentration by the urine volume (mL) for a 0-xxh time interval as follows:
# urinecreatininemg/xxhours=urinecreatinineconcentrationmg/dL*intervalvolumemL/100mL/dL.
# Percent of filtered glucose excreted in the urine was estimated for all collection intervals on Day 2 as follows:
# GlucoseAmountExcreted/Clcr*PG*TimeIntervalorUrineglucosemg/dL*SerumCreatininemg/dL/urinecreatininemg/dL*PGmg/dL
# where glucose amount excreted is the amount of glucose excreted during the xx-hour period, and CLcr is calculated for the xx-hour time interval. PG is the plasma glucose concentration reported closest to the midpoint of the time interval. Because only pre-dose PG was collected in this study, the pre-dose PG on Day 2 was used. Time interval is the number of minutes of urine collection for that interval.
# clinical = assay: clinical
# Description: Subjects were randomized to receive one of two treatment sequences depicted in Table 1. […] The last dose of drug for each study period was before breakfast on day 3. […] On the evening before each treatment period, subjects were admitted and confined to the clinical site for the duration of the 3-day treatment period. Pharmacokinetic (PK), pharmacodynamic (PD; urine glucose and FPG), and safety (adverse events, vital signs, ECG, clinical laboratory parameters including lactic acid) assessments were performed at check-in and throughout the treatment periods. For each treatment period, the PK sampling occurred on Day 3.
# All sample times are relative to the time of the administration of the first dose of study medication on Day 3 of each period. […] Blood samples for remogliflozin etabonate, remogliflozin and GSK279782 were collected into tubes containing potassium-oxalate/ sodium fluoride, placed on ice and centrifuged at approximately 3000 rpm for 10 minutes at approximately 4°C. The harvested plasma was frozen at -70°C until analysis for remogliflozin etabonate, remogliflozin and GSK279782 concentrations.
# The concentrations of remogliflozin etabonate, remogliflozin, and GSK279782 in deproteinized plasma samples and standards were determined by high-performance liquid chromatography (HPLC) with tandem mass spectrometry (MS/MS) using isotopically labelled internal standards ([^2H7]- remogliflozin etabonate, [^2H7]- remogliflozin and [^2H7]-GSK279782 as previously described.
# Plasma proteins from a […] plasma aliquot were precipitated using acetonitrile containing the internal standard (200 ng mL-1). Samples were vortex mixed then centrifuged. The resulting supernatant was transferred and mixed with […] of HFBA buffer (water containing 10 mM ammonium acetate and 0.26% (v/v) of heptofluorobutyric acid) prior to injection. HPLC was performed on a Shimadzu LC-10A HPLC system. Chromatography was performed on a MAC-MOD Ace 3 C18, 4.6 × 50 mm column at a flow rate of 1.0 mL min-1. An isocratic mobile phase elution with 82:18 (v/v) HFBA buffer : Acetonitrile was used. Samples were analysed in positive ion mode by Turbo Ionspray LC/MS/MS with a PE/Sciex API 3000. The calibration range was 20 to 5000 ng mL-1. Performance of the method was assessed during a 3 day validation study using quality control samples at 5 concentrations 20, 80, 500, 4000 and 5000 ng mL-1.
# Actual elapsed time from dosing was used to estimate all individual plasma PK parameters.
# • Cmax and tmax were the actual observed values.
# • AUC(0–12) or AUC(0–last) was calculated by a combination of linear and logarithmic trapezoidal methods. The linear trapezoidal method was used for all incremental trapezoids arising from increasing concentrations and the logarithmic trapezoidal method was used for those arising from decreasing concentrations.
# subjects with T2DM [2] = assay: Lactic acid concentration by treatment; format: in vivo, human; conditions: during the three day treatment period
# Protocol: (§1) For each treatment period, subjects were admitted to the clinical facility on the evening of Day -1 to undergo check-in procedures including a physical examination, 12-lead ECG, vital signs, clinical laboratory tests (chemistry, hematology and urinalysis), lactic acid measurement, fasting blood glucose measurement, alcohol screen, drugs of abuse screen and pregnancy test (if applicable). On each study day morning, a fasting blood sugar measurement was determined by glucose monitor. On Days 1 and 2, vital signs and a 12-lead ECG were recorded. Samples for clinical laboratory measure were also taken on Days 1 and 3. Subjects returned to the clinic 7–10 days following the last dosing day for a follow-up physical examination and laboratory evaluation. During the between-treatment intervals, subjects were provided with glucose monitors to measure fasting blood glucose concentrations; subjects were instructed as to how to recognize and treat symptoms of hypoglycemia. Adverse events were monitored throughout the entire study (randomization to follow-up visit). Any adverse events reported during the study were assessed by the investigator for intensity (mild, moderate, severe) and relationship to the study drug (causality). Where possible, all adverse events were followed until stabilization, resolution, or until the event was otherwise explained.
# subjects with T2DM [3] = assay: Fasting plasma glucose change from baseline; format: in vivo, human; conditions: baseline pre-dose Day 1 to Day 2 and Day 3
# Protocol: FPG concentrations were collected on Day -1, 1, 2 and 3. Changes in plasma glucose from baseline (Day 1) to Day 2 and 3 were calculated.
# subjects with T2DM [4] = assay: 24-hour urine glucose excretion in subjects with T2DM; format: in vivo, human
# Protocol: Urine was collected on Days 1 to 3 of each treatment period, and urine glucose concentrations were analyzed for the following intervals: 0–4 hours, 4–8 hours, 8–12 hours and 12–24 hours. The quantity of glucose and creatinine excreted in urine was determined by multiplying the urine glucose or creatinine concentration for each time interval by the volume of urine for the corresponding collection interval. The total 24-hour quantity of glucose excreted in urine on Day 2 was calculated by adding the amounts collected during each interval. Urine glucose and creatinine amounts were summarized for each collected interval and for the total 24-hour collection period.
# [5] = Statistical comparison of PK parameters with and without co-administered drug (drug-drug interaction); format: in vivo, human
# Protocol: Safety and PD parameters were summarized using descriptive statistics. […] The PROC MIXED from SAS (Version 8.2, Cary, NC, USA) was used to fit the model. The estimates and the 90% CI were exponentiated in order to obtain the ratio of geometric means and its CI. The assumptions underlying the model were assessed by visual inspection of residual plots. […] Tmax was analysed non-parametrically using Hodges–Lehmann method.
# [6] = cited from earlier work
# subjects with T2DM [7] = assay: Fluid intake, urine volume and fluid balance; format: in vivo, human; conditions: Day 1, 0–24-hour interval, intake minus output
# Description: Total fluid intake, urine volume, and fluid balance (intake minus output) were summarized over the 0–24-hour interval of Day 1 and Day 2 and the 0–12-hour interval of Day 3 of each treatment period.
# subjects with T2DM [8] = assay: Clinical safety and tolerability (adverse events, laboratory parameters, vital signs); format: in vivo, human; conditions: N = 13
# Protocol: as §1
# [9] = test system: healthy subjects and subjects with T2DM; set-up: method as in PMID 21733056, PMID 23668634; conditions: single oral doses up to 1000 mg in healthy subjects, up to 1000 mg BID for 2 weeks in T2DM; cited from earlier work
# diabetic rodent models = conditions: several diabetic rodent models; cited from earlier work
# [10] = test system: panel of metabolic enzymes and transporters, including organic cation transporters; set-up: method as in earlier work; conditions: panel including organic cation transporters involved with metformin renal secretion; cited from earlier work
# rats = conditions: cited from earlier work
# mice = conditions: cited from earlier work
# [11] = treatment for 2 weeks, subjects with T2DM; cited from earlier work
# [12] = human, in vivo, 500 mg, AUC(0–12)
"Cmax (clinical; human, in vivo) [ng/mL]",SMILES,"percent filtered glucose excreted in urine, max (subjects with T2DM [1]) [%]","percent filtered glucose excreted in urine, mean (SD) (subjects with T2DM [1])","percent filtered glucose excreted in urine, median (subjects with T2DM [1]) [%]","percent filtered glucose excreted in urine, min (subjects with T2DM [1]) [%]","percent of filtered glucose excreted in the urine, mean (subjects with T2DM [1])",AUC(0-t) (clinical; [12]) [ng·h/mL],mean lactate concentrations (subjects with T2DM [2]),changes in fasting plasma glucose concentrations from baseline (subjects with T2DM [3]),"24-hour urine glucose, max (subjects with T2DM [4]; Day 2, N = 13) [mmol]","24-hour urine glucose, median (subjects with T2DM [4]; Day 2, N = 13) [mmol]","24-hour urine glucose, min (subjects with T2DM [4]; Day 2, N = 13) [mmol]",fluid balance (median) (subjects with T2DM [7]) [mL],Abdominal pain upper (subjects with T2DM [8]),Any Event (subjects with T2DM [8]),Back pain (subjects with T2DM [8]),Dizziness (subjects with T2DM [8]),Dyspepsia (subjects with T2DM [8]),Fatigue (subjects with T2DM [8]),Headache (subjects with T2DM [8]),further results
79.5,CCOC(=O)OC[C@H]1O[C@@H](Oc2nn(C(C)C)c(C)c2Cc2ccc(OC(C)C)cc2)[C@H](O)[C@@H](O)[C@@H]1O [Remogliflozin etabonate],61.3,51.3 (7.02) percent,51.8,38.4,approximately 50%,–,unchanged or decreased slightly,small decreases,796,497,384,-1145,1 (8%) n (%),2 (15%) n (%),0 n (%),0 n (%),0 n (%),0 n (%),0 n (%),"Tmax (clinical; human, in vivo): 3 h; AUC(0-t) (clinical; human, in vivo, AUC(0–last)): 98.9 ng·h/mL; safety and tolerability [9]: safe and well tolerated; antidiabetic efficacy (diabetic rodent models): exhibit antidiabetic efficacy; inhibition of metabolic enzymes and transporters [10]: lack of inhibition; urinary glucose excretion (rats): increase urinary glucose excretion in a dose-dependent manner; AUC(0-last) point estimate (GLSM Ratio) ([5]; MET + RE / RE): 1.00; Cmax point estimate (GLSM Ratio) ([5]; MET + RE / RE): 0.85; decrease in Cmax ([5]; MET + RE compared to remogliflozin etabonate alone): 15%; effect of metformin on AUC ([5]; MET + RE vs remogliflozin etabonate alone): no effects; urinary glucose excretion (mice): increase urinary glucose excretion in a dose-dependent manner; Hypoglycemia (subjects with T2DM [8]): 0 n (%); Muscle spasms (subjects with T2DM [8]): 1 (8%) n (%); Nasopharyngitis (subjects with T2DM [8]): 0 n (%); Neck pain (subjects with T2DM [8]): 0 n (%); Osteoarthritis (subjects with T2DM [8]): 0 n (%); Rash (subjects with T2DM [8]): 0 n (%); Toothache (subjects with T2DM [8]): 0 n (%); Wound (subjects with T2DM [8]): 0 n (%)"
–,NS(=O)(=O)c1cc2c(cc1Cl)NCNS2(=O)=O [hydrochlorothiazide],–,–,–,–,–,–,–,–,–,–,–,–,–,–,–,–,–,–,–,effect on the clearance of metformin [11]: no significant effect
2690,Cc1c(Cc2ccc(OC(C)C)cc2)c(O[C@@H]2O[C@H](CO)[C@@H](O)[C@H](O)[C@H]2O)nn1C(C)C [Remogliflozin],–,–,–,–,–,6810,–,–,–,–,–,–,–,–,–,–,–,–,–,"Tmax (clinical; human, in vivo): 3 h; inhibition of metabolic enzymes and transporters [10]: lack of inhibition"

SMILES,"Cmax (clinical; human, in vivo) [ng/mL]","percent filtered glucose excreted in urine, max (subjects with T2DM [1]) [%]","percent filtered glucose excreted in urine, mean (SD) (subjects with T2DM [1])","percent filtered glucose excreted in urine, median (subjects with T2DM [1]) [%]","percent filtered glucose excreted in urine, min (subjects with T2DM [1]) [%]","percent of filtered glucose excreted in the urine, mean (subjects with T2DM [1])",AUC(0-t) (clinical; [12]) [ng·h/mL],mean lactate concentrations (subjects with T2DM [2]),changes in fasting plasma glucose concentrations from baseline (subjects with T2DM [3]),"24-hour urine glucose, max (subjects with T2DM [4]; Day 2, N = 13) [mmol]","24-hour urine glucose, median (subjects with T2DM [4]; Day 2, N = 13) [mmol]","24-hour urine glucose, min (subjects with T2DM [4]; Day 2, N = 13) [mmol]",fluid balance (median) (subjects with T2DM [7]) [mL],Abdominal pain upper (subjects with T2DM [8]),Any Event (subjects with T2DM [8]),Back pain (subjects with T2DM [8]),Dizziness (subjects with T2DM [8]),Dyspepsia (subjects with T2DM [8]),Fatigue (subjects with T2DM [8]),Headache (subjects with T2DM [8]),further results
"CN(C)C(=N)N=C(N)N [Metformin, reference compound]",1020,4.71,1.41 (1.52) percent,0.95,0.10,1.4%,7140,increase or increasing trend,remained relatively stable,43.9,10.9,1.1,-775,0 n (%),5 (38%) n (%),2 (15%) n (%),1 (8%) n (%),0 n (%),1 (8%) n (%),2 (15%) n (%),"Tmax (clinical; plasma, Day 3, MET BID, median (range)): 4.0 (1.0 - 6.0) h; effect on urine glucose output (subjects with T2DM [4]; Day 2): relatively no effect; 24-hour urine glucose, mean (SD) (subjects with T2DM [4]; Day 2, N = 13): 13.6 (13.4) mmol; effect of remogliflozin etabonate on PK parameters ([5]; metformin PK with MET + RE vs MET): no effect; renal excretion [6]: 3 times the glomerular filtration rate; Hypoglycemia (subjects with T2DM [8]): 1 (8%) n (%); Muscle spasms (subjects with T2DM [8]): 1 (8%) n (%); Nasopharyngitis (subjects with T2DM [8]): 0 n (%); Neck pain (subjects with T2DM [8]): 1 (8%) n (%); Osteoarthritis (subjects with T2DM [8]): 0 n (%); Rash (subjects with T2DM [8]): 0 n (%); Toothache (subjects with T2DM [8]): 1 (8%) n (%); Wound (subjects with T2DM [8]): 0 n (%)"
